In assay [1] the target is T1, Biotin-Aβ(1-42) (Homo sapiens, UniProt P05067).
T1 construct: Biotin-Aβ(1-42) (AnaSpec) at 0.2 mg/ml in hexafluoroisopropanol (HFIP); purchased AnaSpec
Kind of assay: Biotin-Aβ(1-42) oligomeric assay. In kind it is biochemical. The following applies: inhibition of oligomer formation at 25 uM, 30 minutes; higher = more inhibition. How it is done:
The following assay was adapted from H. LeVine III. Biotin-avidin interaction-based screening assay for Alzheimer's β-peptide oligomer inhibitors, Anal. Biochem. 356 (2006) 265-272 and A. Frey, B. Meckelein, D. Externest, M. A. Schmidt A stable and highly sensitive 3,3′,5,5′-tetramethylbenzidine-based substrate reagent for enzyme-linked immunosorbent assays, J. Immunol. Methods 233 (2000) 47-56.
Biotin-Aβ(1-42) (AnaSpec) at 0.2 mg/ml in hexafluoroisopropanol (HFIP) was further diluted in 20 volumes of HFIP, which was then evaporated under a stream of argon. 20 volumes of trifluoroacetic acid was added and let rest for 10 minutes, then evaporated under a stream of argon. Another 20 volumes of HFIP was added and evaporated under a stream of argon. Biotin-Aβ(1-42) was brought to a final concentration of 2.3 mg/ml in DMSO. Oligomer formation was initiated in 96 well round bottom polypropylene plates by diluting the prepared biotin-Aβ(1-42) 50× in 20 mM sodium phosphate pH 7.5, 150 mM NaCl in the presence of vehicle or compound. Oligomer formation was halted after 30 minutes by the addition of 50 μl/well of 0.3% Tween-20.
96 well Costar high-binding microplates were coated overnight at +4° C. with 50 μl/well of 1 ug/ml NeutrAvidin (ThermoScientific) in 10 mM sodium phosphate, pH 7.5. Plates were blocked for 2 hours at room temperature with 200 μl/well 20 mM sodium phosphate pH 7.5, 150 mM NaCl, 0.1% Tween-20. The oligomer preparation was transferred at 50 μl/well to the blocked plate and incubated for 2 hours at room temperature with shaking at 150 rpm. The plate was then washed three times with 200 μl/well 20 mM tris-HCl pH 7.5, 34 mM NaCl, 0.1% Tween-20 (TBS-T). Streptavidin-HRP (Rockland Immunochemicals) [1:20,000] in 20 mM sodium phosphate pH 7.5, 150 mM NaCl, 0.1% Tween-20 was added at 50 μl/well and incubated in the dark at room temperature for 1 hour with shaking at 150 rpm. The plate was washed three times with 200 μl/well of TBS-T. Tetramethylbenzidine/H2O2 substrate was prepared by mixing 250 μl of 41 mM 3,3′,5,5′-tetramethylbenzidine, 8.2 mM tetrabutylammonium borohydride in dimethylacetamide with 10 ml of 205 mM K3 citrate pH 4.0, 3.075 mM H2O2 and incubating for 15 minutes at room temperature. Prepared substrate solution was added at 100 μl/well and the reaction was allowed to proceed for 15 minutes, after which it was terminated by the addition of 100 μl/well of 1% H2SO4. The OD450nm was determined using a Tecan Infinite F200 plate reader.

The target in assay [2] is Aβ40 (Homo sapiens, UniProt P05067). Put plainly: kinetic ThT assay for Aβ aggregation. In kind it is biochemical. The following applies: for inhibition at 5 µM: 80 h, read-out: % inhib Aβ 40 (5 μm); for inhibition at 10 µM: compound 10 μM, read-out: % inhib Aβ 40 10 μM; for inhibition at 20 µM: read-out: % inhib. A β 40 (20 μM). How it is done: Aβ40 (1.0 mg) was pre-treated in a 1.5 mL microfuge tube with HFIP (1 mL) and sonicated for 20 min to disassemble any pre-formed Aβ aggregates. The HFIP was removed with a stream of argon and the Aβ dissolved in Tris base (5.8 mL, 20 mM, pH˜10). The pH was adjusted to 7.4 with concentrated HCl (˜10 μL) and the solution filtered using a syringe filter (0.2 μm) before being used.
The kinetic ThT assay for AP aggregation is similar to that of Chalifour et al (Chalifour et al, 2003, J. Biol. Chem. 278:34874-81). Briefly, pre-treated Aβ40 or Aβ42 (40 μM in 20 mM Tris, pH 7.4) was diluted with an equal volume of 8 μM Thioflavin T (ThT) in Tris (20 mM, pH 7.4, 300 mM NaCl). Aliquots of Aβ/ThT (200 μL) were added to wells of a black polystyrene 96-well plate, followed by 2 μL of a compound in DMSO (variable concentration), or DMSO alone (controls). Incubations were performed in triplicate and were taken to contain 20 μM Aβ, various concentration of compound in 20 mM Tris, pH 7.4, 150 mM NaCl, 1% DMSO. Plates were covered with clear polystyrene lids and incubated at 37° C. in a Tecan Genios microplate reader.
Fluorescence readings (λex=450 nm, λem=480 nm) were taken every 15 min., after first shaking at high intensity for 15 s and allowing to settle for 10 s before each reading. Active compounds attenuated the increase in fluorescence over time that occurred in controls. In FIGS. 1-7, the time this procedure was performed extended to 80 hours (rightmost part of X-axis), at which point fluorescence increase generally reached an asymptote. Applying a definition of DMSO control at 80 hr as 100% aggregation (0% inhibition) and DMSO control at 0 hr as 0% aggregation (100% inhibition), a % inhibition score where higher is better can be calculated for a given concentration of compound. By repeating this procedure over several concentrations, a […] (IC50) can be measured, as is given in the table below for some compounds.
Data is summarized in the table below; numbers given in parenthesis are the values in that particular experiment for compound ID 1027, given as the first entry in this table for comparison.

Setting [3] is: compound 5 μm, DMSO control at 80 hr = 0% inhibition, parenthesis = compound 1027.
Setting [4] is: ThT fluorescence, 20 μM Aβ, 37° C., up to 80 hr, parenthesis = compound 1027 in same experiment, read-out: IC50 A β 1-40.
The mark [5] stands for this setting: DMSO control at 80 hr = 0% inhibition, parenthesis = compound 1027.
The mark [6] stands for this setting: compound 20 μM, DMSO control at 80 hr = 0% inhibition, parenthesis = compound 1027.

From patent publication US9328078B2, “Benzofurazan anti-amyloid compounds and methods” (Treventis Corporation, priority 2012, dated 2016) come the findings set out here.

pIC50: −log10 of the molar value. Where “and” joins values, the source holds several entries; their conditions need not be identical. Identical values can stand only once.

Chain of Aβ40 (P05067 672-711 limits assumed, species assumed): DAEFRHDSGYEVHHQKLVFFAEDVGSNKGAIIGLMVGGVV
T1 sequence (P05067 672-713 limits assumed): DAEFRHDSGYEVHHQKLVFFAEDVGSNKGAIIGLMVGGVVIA

Turning to `OC(c1cccc(-c2cc(N3CCC(N4CCCC4)CC3)c3nonc3c2)c1)C(F)(F)F` (stereo not shown) [TRV-1387], in assay [1], the inhibition at 25 µM was 75%. Moreover, the inhibition at 5 µM in assay [2] (setting [3]) worked out at 40%. Also, the pIC50 – broadly, −log10 of the IC50, conventionally taken in molar units – in assay [2] (setting [4]) is 5.24. The inhibition at 10 µM in assay [2] (setting [5]) worked out at 52%. The inhibition at 20 µM in assay [2] (setting [6]) is 78%.
For the compound `CC(C)(O)C1CN(c2cc(-c3cccc(C(O)C(F)(F)F)c3)cc3nonc23)C1` (stereo not shown) [TRV-1435], the inhibition at 25 µM in assay [1] amounted to 29%. The inhibition at 5 µM in assay [2] (setting [3]) stood at 52%. In addition, the inhibition at 10 µM in assay [2] (setting [5]) worked out at 66%.
Turning to `CC(C)OC1CN(c2cc(-c3cccc(C(O)C(F)(F)F)c3)cc3nonc23)C1` (stereo not shown) [TRV-1447], the inhibition at 5 µM in assay [2] (setting [3]) was found to be 54%. Besides, the inhibition at 10 µM in assay [2] (setting [5]) is 70%.
Turning to `OC1CCN(c2cc(-c3cccc(C(O)C(F)(F)F)c3)cc3nonc23)C1` (stereo not shown) [TRV-1448], the inhibition at 25 µM in assay [1] is -23%. Further, in assay [2] (setting [3]), the inhibition at 5 µM came to 45%. Moreover, in assay [2] (setting [5]), the inhibition at 10 µM came to 55%.
For `CC(C)(O)[C@@H]1CCCN1c1cc(-c2cccc(C(O)C(F)(F)F)c2)cc2nonc12` (stereo partly shown) [TRV-1449], in that order: -3%, 55% and 72%.
Regarding `OC[C@@H]1CCCN1c1cc(-c2cccc(C(O)C(F)(F)F)c2)cc2nonc12` (stereo partly shown) [TRV-1450], the inhibition at 25 µM in assay [1] was determined as 32%. The inhibition at 5 µM in assay [2] (setting [3]) was 57%. The inhibition at 10 µM in assay [2] (setting [5]) worked out at 79%.
In the case of `CC(O)C1CN(c2cc(-c3cccc(C(O)C(F)(F)F)c3)cc3nonc23)C1` (stereo not shown) [TRV-1451], the inhibition at 25 µM in assay [1] worked out at 4%. In assay [2] (setting [3]), the inhibition at 5 µM turned out to be 54%. In addition, the inhibition at 10 µM in assay [2] (setting [5]) stood at 73%.
For `OC(c1cccc(-c2cc(N3CCC[C@H]3CN3CCCC3)c3nonc3c2)c1)C(F)(F)F` (stereo partly shown) [TRV-1452], in assay [1], the inhibition at 25 µM was found to be 76%. For the same compound, the inhibition at 5 µM in assay [2] (setting [3]) turned out to be 50%. Besides, the inhibition at 10 µM in assay [2] (setting [5]) turned out to be 63%.
For `OC(c1cccc(-c2cc(N3CC(CN4CCOCC4)C3)c3nonc3c2)c1)C(F)(F)F` (stereo not shown) [TRV-1455], in that order: 29%, 41% and 60%.
As for `OC(c1cccc(-c2cc(N3CC(N4CCCC4)C3)c3nonc3c2)c1)C(F)(F)F` (stereo not shown) [TRV-1456], the inhibition at 25 µM in assay [1] is 3%. Moreover, the inhibition at 5 µM in assay [2] (setting [3]) was 36%. Moreover, the inhibition at 10 µM in assay [2] (setting [5]) was 64%.
For `OC(c1cccc(-c2cc(N3CC(CN4CCCC4)C3)c3nonc3c2)c1)C(F)(F)F` (stereo not shown) [TRV-1457], in that order: 82%, 51% and 65%.
In the case of `CN(Cc1nccs1)c1cc(-c2cccc(C(O)C(F)(F)F)c2)cc2nonc12` (stereo not shown) [TRV-1459], in assay [1], the inhibition at 25 µM was -32%. The inhibition at 5 µM in assay [2] (setting [3]) was 47%. The inhibition at 10 µM in assay [2] (setting [5]) was 62%.
As for `CN(Cc1ccc(F)cc1)c1cc(-c2cccc(C(=O)N3CCCC3)c2)cc2nonc12` [TRV-1460], the inhibition at 25 µM in assay [1] turned out to be 10%. For the same compound, the inhibition at 5 µM in assay [2] (setting [3]) stood at 36%. Further, the inhibition at 10 µM in assay [2] (setting [5]) came to 44%.
`COC(C)C1CN(c2cc(-c3cccc(C(O)C(F)(F)F)c3)cc3nonc23)C1` (stereo not shown) [TRV-1461]: in assay [1], the inhibition at 25 µM was -28%. In assay [2] (setting [3]), the inhibition at 5 µM was found to be 58.9%. Also, the inhibition at 10 µM in assay [2] (setting [5]) was 71.7%.
As for `OC(c1cccc(-c2cc(N3CC(N4CCOCC4)C3)c3nonc3c2)c1)C(F)(F)F` (stereo not shown) [TRV-1462], the inhibition at 25 µM in assay [1] is 23%. Also, the inhibition at 5 µM in assay [2] (setting [3]) worked out at 53%. In addition, in assay [2] (setting [5]), the inhibition at 10 µM turned out to be 48%.
On to `CN(C)CCCN(C)c1cc(-c2cccc(C(O)C(F)(F)F)c2)cc2nonc12` (stereo not shown) [TRV-1465], for which, in assay [1], the inhibition at 25 µM was found to be 69%.
For `CN(C)C1CCN(c2cc(-c3cccc(C(O)C(F)(F)F)c3)cc3nonc23)CC1` (stereo not shown) [TRV-1466], the inhibition at 25 µM in assay [1] was determined as 72%. In addition, in assay [2] (setting [3]), the inhibition at 5 µM is 36.9%. The inhibition at 10 µM in assay [2] (setting [5]) is 49%.
On to `O=C(c1ccccc1)N1CCN(c2ccc([N+](=O)[O-])c(Nc3ccccc3)c2)CC1` [compound 1027, reference compound], for which, in assay [2] (setting [3]), the inhibition at 5 µM stood at 33%; the “% inhib Aβ 40 (5 μm)” value was 38% and 33% (3×). Further, the IC50 (as a rule, the midpoint of a concentration-inhibition curve) in assay [2] (setting [4]) was 10.5 µM (3×) and 14.7 µM and 22.1 µM (3×). In assay [2] (setting [6]), the “% inhib. A β 40 (20 μM)” value was 52% and 53% and 51%; the inhibition at 20 µM was 69%. Further, in assay [2] (compound 3 μm, DMSO control at 80 hr = 0% inhibition, parenthesis = compound 1027), the “% inhib Aβ 40 (3 μm)” value worked out at 26%.
On to `CN(C)CCCN(C)c1cc(-c2cccc(C(O)C(F)(F)F)c2)cc2nonc12` (stereo not shown) [compound 1463], for which the inhibition at 5 µM in assay [2] (setting [3]) is 43.8%. The inhibition at 10 µM in assay [2] (setting [5]) stood at 62%.
